Assay results taken from the NIST ThermoML archive (doi:10.1021/je800224k).
Numbers after ± are expanded uncertainties.

Conditions: Liquid

CCCCCCn1cc[n+](C)c1.F[P-](F)(F)(F)(F)F [1-hexyl-3-methylimidazolium hexafluorophosphate]
mass density (293.15 K, 101.33 kPa, Vibrating tube method): 1297 ± 4 kg/m3 | mass density (312.9 K, 10000 kPa, Bellows volumetry): 1287 ± 4 kg/m3 | mass density (312.9 K, 20000 kPa, Bellows volumetry): 1292 ± 4 kg/m3 | mass density (312.9 K, 30000 kPa, Bellows volumetry): 1298 ± 4 kg/m3 | mass density (312.9 K, 40000 kPa, Bellows volumetry): 1303 ± 4 kg/m3 | mass density (312.9 K, 50000 kPa, Bellows volumetry): 1308 ± 4 kg/m3 | mass density (312.9 K, 60000 kPa, Bellows volumetry): 1313 ± 4 kg/m3 | mass density (312.9 K, 70000 kPa, Bellows volumetry): 1318 ± 4 kg/m3 | mass density (312.9 K, 80000 kPa, Bellows volumetry): 1322 ± 4 kg/m3 | mass density (312.9 K, 90000 kPa, Bellows volumetry): 1327 ± 4 kg/m3 | mass density (312.9 K, 100000 kPa, Bellows volumetry): 1331 ± 4 kg/m3 | mass density (312.9 K, 110000 kPa, Bellows volumetry): 1335 ± 4 kg/m3 | mass density (312.9 K, 120000 kPa, Bellows volumetry): 1339 ± 4 kg/m3 | mass density (312.9 K, 130000 kPa, Bellows volumetry): 1343 ± 4 kg/m3 | mass density (312.9 K, 140000 kPa, Bellows volumetry): 1347 ± 4 kg/m3 | mass density (312.9 K, 150000 kPa, Bellows volumetry): 1351 ± 4 kg/m3 | mass density (312.9 K, 160000 kPa, Bellows volumetry): 1355 ± 4 kg/m3 | mass density (312.9 K, 170000 kPa, Bellows volumetry): 1358 ± 4 kg/m3 | mass density (312.9 K, 180000 kPa, Bellows volumetry): 1362 ± 4 kg/m3 | mass density (312.9 K, 190000 kPa, Bellows volumetry): 1366 ± 4 kg/m3 | mass density (312.9 K, 200000 kPa, Bellows volumetry): 1369 ± 4 kg/m3 | mass density (313.15 K, 101.33 kPa, Vibrating tube method): 1280.7 ± 4 kg/m3 | mass density (332.6 K, 10000 kPa, Bellows volumetry): 1271 ± 4 kg/m3 | mass density (332.6 K, 20000 kPa, Bellows volumetry): 1277 ± 4 kg/m3 | mass density (332.6 K, 30000 kPa, Bellows volumetry): 1283 ± 4 kg/m3 | mass density (332.6 K, 40000 kPa, Bellows volumetry): 1289 ± 4 kg/m3 | mass density (332.6 K, 50000 kPa, Bellows volumetry): 1294 ± 4 kg/m3 | mass density (332.6 K, 60000 kPa, Bellows volumetry): 1299 ± 4 kg/m3 | mass density (332.6 K, 70000 kPa, Bellows volumetry): 1304 ± 4 kg/m3 | mass density (332.6 K, 80000 kPa, Bellows volumetry): 1309 ± 4 kg/m3 | mass density (332.6 K, 90000 kPa, Bellows volumetry): 1313 ± 4 kg/m3 | mass density (332.6 K, 100000 kPa, Bellows volumetry): 1318 ± 4 kg/m3 | mass density (332.6 K, 110000 kPa, Bellows volumetry): 1322 ± 4 kg/m3 | mass density (332.6 K, 120000 kPa, Bellows volumetry): 1326 ± 4 kg/m3 | mass density (332.6 K, 130000 kPa, Bellows volumetry): 1330 ± 4 kg/m3 | mass density (332.6 K, 140000 kPa, Bellows volumetry): 1334 ± 4 kg/m3 | mass density (332.6 K, 150000 kPa, Bellows volumetry): 1338 ± 4 kg/m3 | mass density (332.6 K, 160000 kPa, Bellows volumetry): 1342 ± 4 kg/m3 | mass density (332.6 K, 170000 kPa, Bellows volumetry): 1346 ± 4 kg/m3 | mass density (332.6 K, 180000 kPa, Bellows volumetry): 1350 ± 4 kg/m3 | mass density (332.6 K, 190000 kPa, Bellows volumetry): 1353 ± 4 kg/m3 | mass density (332.6 K, 200000 kPa, Bellows volumetry): 1357 ± 4 kg/m3 | mass density (333.15 K, 101.33 kPa, Vibrating tube method): 1265.1 ± 3.9 kg/m3 | mass density (352.7 K, 10000 kPa, Bellows volumetry): 1256 ± 4 kg/m3 | mass density (352.7 K, 20000 kPa, Bellows volumetry): 1262 ± 4 kg/m3 | mass density (352.7 K, 30000 kPa, Bellows volumetry): 1268 ± 4 kg/m3 | mass density (352.7 K, 40000 kPa, Bellows volumetry): 1274 ± 4 kg/m3 | mass density (352.7 K, 50000 kPa, Bellows volumetry): 1280 ± 4 kg/m3 | mass density (352.7 K, 60000 kPa, Bellows volumetry): 1285 ± 4 kg/m3 | mass density (352.7 K, 70000 kPa, Bellows volumetry): 1290 ± 4 kg/m3 | mass density (352.7 K, 80000 kPa, Bellows volumetry): 1295 ± 4 kg/m3 | mass density (352.7 K, 90000 kPa, Bellows volumetry): 1300 ± 4 kg/m3 | mass density (352.7 K, 100000 kPa, Bellows volumetry): 1305 ± 4 kg/m3 | mass density (352.7 K, 110000 kPa, Bellows volumetry): 1309 ± 4 kg/m3 | mass density (352.7 K, 120000 kPa, Bellows volumetry): 1314 ± 4 kg/m3 | mass density (352.7 K, 130000 kPa, Bellows volumetry): 1318 ± 4 kg/m3 | mass density (352.7 K, 140000 kPa, Bellows volumetry): 1322 ± 4 kg/m3 | mass density (352.7 K, 150000 kPa, Bellows volumetry): 1326 ± 4 kg/m3 | mass density (352.7 K, 160000 kPa, Bellows volumetry): 1330 ± 4 kg/m3 | mass density (352.7 K, 170000 kPa, Bellows volumetry): 1334 ± 4 kg/m3 | mass density (352.7 K, 180000 kPa, Bellows volumetry): 1338 ± 4 kg/m3 | mass density (352.7 K, 190000 kPa, Bellows volumetry): 1342 ± 4 kg/m3 | mass density (352.7 K, 200000 kPa, Bellows volumetry): 1345 ± 4 kg/m3 | mass density (353.15 K, 101.33 kPa, Vibrating tube method): 1249.8 ± 3.9 kg/m3 | mass density (372.9 K, 10000 kPa, Bellows volumetry): 1241 ± 4 kg/m3 | mass density (372.9 K, 20000 kPa, Bellows volumetry): 1248 ± 4 kg/m3 | mass density (372.9 K, 30000 kPa, Bellows volumetry): 1254 ± 4 kg/m3 | mass density (372.9 K, 40000 kPa, Bellows volumetry): 1260 ± 4 kg/m3 | mass density (372.9 K, 50000 kPa, Bellows volumetry): 1266 ± 4 kg/m3 | mass density (372.9 K, 60000 kPa, Bellows volumetry): 1271 ± 4 kg/m3 | mass density (372.9 K, 70000 kPa, Bellows volumetry): 1277 ± 4 kg/m3 | mass density (372.9 K, 80000 kPa, Bellows volumetry): 1282 ± 4 kg/m3 | mass density (372.9 K, 90000 kPa, Bellows volumetry): 1287 ± 4 kg/m3 | mass density (372.9 K, 100000 kPa, Bellows volumetry): 1292 ± 4 kg/m3 | mass density (372.9 K, 110000 kPa, Bellows volumetry): 1296 ± 4 kg/m3 | mass density (372.9 K, 120000 kPa, Bellows volumetry): 1301 ± 4 kg/m3 | mass density (372.9 K, 130000 kPa, Bellows volumetry): 1306 ± 4 kg/m3 | mass density (372.9 K, 140000 kPa, Bellows volumetry): 1310 ± 4 kg/m3 | mass density (372.9 K, 150000 kPa, Bellows volumetry): 1314 ± 4 kg/m3 | mass density (372.9 K, 160000 kPa, Bellows volumetry): 1318 ± 4 kg/m3 | mass density (372.9 K, 170000 kPa, Bellows volumetry): 1322 ± 4 kg/m3 | mass density (372.9 K, 180000 kPa, Bellows volumetry): 1326 ± 4 kg/m3 | mass density (372.9 K, 190000 kPa, Bellows volumetry): 1330 ± 4 kg/m3 | mass density (372.9 K, 200000 kPa, Bellows volumetry): 1334 ± 4 kg/m3 | mass density (393 K, 10000 kPa, Bellows volumetry): 1226 ± 4 kg/m3 | mass density (393 K, 20000 kPa, Bellows volumetry): 1233 ± 4 kg/m3 | mass density (393 K, 30000 kPa, Bellows volumetry): 1240 ± 4 kg/m3 | mass density (393 K, 40000 kPa, Bellows volumetry): 1246 ± 4 kg/m3 | mass density (393 K, 50000 kPa, Bellows volumetry): 1252 ± 4 kg/m3 | mass density (393 K, 60000 kPa, Bellows volumetry): 1258 ± 4 kg/m3 | mass density (393 K, 70000 kPa, Bellows volumetry): 1264 ± 4 kg/m3 | mass density (393 K, 80000 kPa, Bellows volumetry): 1269 ± 4 kg/m3
